# Measurements from patent US20210041466A1, “DIAGNOSTIC METHODS AND KITS” (Cholestenix Limited, priority 2015, published 2021).
# How the values were obtained:
# [1] = system: Hedgehog signalling (Gli1 mRNA); test: Hedgehog signalling assay using quantitative RT-PCR (Gli1 mRNA in NIH/3T3 cells); type: cell-based; conditions: sterol treatment ~16 hours, different concentrations (FIG. 6, 7)
# Procedure: NIH/3T3 cells were grown to confluency in Dulbecco's Modified Eagle's Medium (DMEM) containing 10% Fetal Bovine Serum (FBS, Optima Grade, Atlanta Biologicals). Confluent cells were exchanged into 0.5% FBS DMEM for 24 hours to allow ciliogenesis prior to treatment with sterols in DMEM containing 0.5% FBS for ˜16 hours. SHH protein carrying a C-terminal hexa-histidine tag was expressed in bacteria and purified as described previously [Bishop Nat Struct Mol Biol 2009]. The mRNA levels of Gli1, a direct Hh target gene commonly used as a metric for signalling strength, were measured using the Power SYBR Green Cells-To-CT kit (Thermo Fisher Scientific). The primers used are Gli1 (forward primer: 5′-[…]-3′ and reverse primer: 5′-[…]-3′), Gapdh (forward primer: 5′-[…]-3′ and reverse primer: 5′-[…]-3′). Transcript levels relative to Gapdh were calculated using the Δelta-Ct method. Each qRT-PCR experiment, which was repeated twice, included two biological replicates, each with two technical replicates.
# [2] = system: Smoothened (Smo); conditions: from the literature (Myers Dev Cell 2013; Corcoran PNAS 2006; Nachtergaele Nat Chem Bio 2012); cited from earlier work
smiles,measurement,setting,value
"C[C@H](CCC(=O)O)[C@H]1CC[C@H]2[C@@H]3C(=O)C=C4C[C@@H](O)CC[C@]4(C)[C@H]3CC[C@]12C [Compound XXI, 3β-Hydroxy-7-oxochol-5-en-24-oic acid]",effect on Hedgehog signalling (mRNA levels of Gli1),[1],inhibitor of Hedgehog signalling
"C[C@H](CCCC(C)(C)O)[C@H]1CC[C@H]2[C@@H]3C(=O)C=C4C[C@@H](O)CC[C@]4(C)[C@H]3CC[C@]12C [Compound XXII, 3β,25-dihydroxycholest-5-en-7-one]",activation of Smo,[2],activators of Smo
"C[C@@H](CO)CCC[C@@H](C)[C@H]1CC[C@H]2[C@@H]3C(=O)C=C4C[C@@H](O)CC[C@]4(C)[C@H]3CC[C@]12C [Compound XX, 3β,26-Dihydroxycholest-5-en-7-one]",effect on Hedgehog signalling (mRNA levels of Gli1),[1],activator of Hedgehog signalling
same,activation of Smo,[2],activators of Smo
"CC(C)CCC[C@](C)(O)[C@H]1CC[C@H]2[C@@H]3CC=C4C[C@@H](O)CC[C@]4(C)[C@H]3CC[C@@]21C [20S-Hydroxycholesterol, reference compound]",activation of Smo,[2],activate Smo in vitro
